{"source": "paper PMC12587574", "about": "“Mass balance, pharmacokinetics, metabolism, and excretion of radiolabeled acoziborole, a potential novel treatment for human African trypanosomiasis, following single microtracer oral dose to humans” (Antimicrobial Agents and Chemotherapy, 2025)", "experiment": "Plasma pharmacokinetics of acoziborole and SCYX-3109 by LC-MS/MS, phase I mass balance study", "type": "in vivo, human", "protocol": "This single-center, open-label, single group, non-randomized, single oral dose study was performed at Quotient Sciences Ltd (Ruddington, Nottingham, UK). Clinical trial authorization was obtained from the Medicines and Healthcare Products Regulatory Agency (UK). Approval for administration of [^14C]-acoziborole was obtained from an expert committee sponsored by the Department of Health and Social Care in the United Kingdom (Administration of Radioactive Substances Advisory Committee [ARSAC]), and from the ARSAC-accredited Quotient Sciences’ nuclear medicine practitioner. This study was approved by a local research ethics committee in the United Kingdom and was conducted in compliance with the Declaration of Helsinki and the International Conference on Harmonisation E6 Guideline for Good Clinical Practice. The study was registered in clinicaltrials.gov (NCT04270981) and in EudraCT (reference 2019-004059-35). Written informed consent was obtained from all participants before undertaking any study-related procedures.\nParticipants were admitted in the evening of the day before dosing (Day −1) and were dosed in the morning of Day 1, following an overnight fast from food and drink of a minimum of 9 h. They remained fasted until approximately 4 h post-dose, at which time lunch was provided. Participants remained resident in the clinic until up to 240 h after dosing (up to Day 11). […] However, due to the COVID-19 pandemic, instead of returning for the outpatient visits, participants were requested to perform home collection of feces for a 48-h period (i.e., Days 31–33, Days 59–61, Days 89–91, and Days 119–121). Collected samples were couriered to the clinical unit at the end of each collection period. A follow-up call took place 5–10 days after the final outpatient visit to ensure the well-being of participants.\nVenous blood samples were collected via an indwelling cannula or by venepuncture. A 12 mL sample was taken into heparinized glass tube and chilled on ice immediately before IP administration and 3 mL samples were taken at 1, 4, 9, 12, 24, 48, 72, 96, 120, 144, 168, and 240 h and on Days 15, 31, 59, 89, and 119 after IP administration. The first 0.5 mL of blood withdrawn via cannula was discarded. One aliquot of heparinized whole blood (1 mL) per time point was stored at or below −20°C for total radioactivity analysis. The remaining blood was centrifuged, and the harvested plasma was stored at approximately −20°C for bioanalysis or transferred (exactly 1 mL) into polypropylene tubes pre-filled with 5 µL formic acid. One plasma sample (0.5 mL) was used for metabolite profiling while another (0.5 mL) was used for parent drug and SCYX-3109 metabolite analysis. The remaining plasma was used for total radioactivity analysis.\nSGS Belgium (Wavre, Belgium) performed the analysis to determine acoziborole and SCYX-3109 concentrations, using validated bioanalytical assays with liquid chromatography with tandem mass spectrometry (LC-MS/MS) with a Supelco Ascentis Express C8, 2.7 µm, 50 × 2.1 mm I.D. separation column. In plasma, the lower limit of quantification (LLOQ) was 25 ng/mL for acoziborole and 10 ng/mL for SCYX-3109. In urine, the LLOQ was 10 ng/mL for both acoziborole and SCYX-3109.\nPK parameters were calculated based on actual sampling times using standard non-compartmental analysis and WinNonlin version 8.1 software (Certara, Princeton, NJ, USA).\nThe SCYX-3109 to parent ratios were calculated based on Cmax and AUC0–∞.", "note": "Where two headings read alike, the source gives them in different places.", "data": [{"smiles": "CC1(C)OB(O)c2cc(NC(=O)c3ccc(F)cc3C(F)(F)F)ccc21", "note": "[acoziborole]", "values": [{"measurement": "mean t1/2 ratio of acoziborole to total radioactivity in blood", "setting": "960 mg single oral dose", "value": 1.1}, {"measurement": "mean t1/2 ratio of acoziborole to total radioactivity in plasma", "setting": "960 mg single oral dose", "value": 1.0}, {"measurement": "share of the radioactivity in plasma, based on AUC0–240h and AUC0–∞ ratios of acoziborole to total radioactivity", "setting": "960 mg single oral dose", "value": "~100", "unit": "%"}, {"measurement": "t1/2 in plasma", "setting": "960 mg single oral dose of acoziborole, N = 6, mean ± SD", "value": "272.1 ± 36.3", "unit": "h"}, {"measurement": "CL/F (apparent total body clearance)", "setting": "960 mg single oral dose, plasma, N = 6, mean ± SD", "value": "0.2 ± 0.0", "unit": "L/h"}, {"measurement": "time first detected in plasma after dosing", "setting": "after 960 mg single oral [14C]-acoziborole", "value": 1, "unit": "h"}, {"measurement": "AUC(0-t)", "setting": "human, plasma, po, 960 mg, 960 mg single oral dose of acoziborole, N = 6, mean ± SD, read-out: AUC0–240h in plasma", "value": 2520, "unit": "µg·h/mL"}, {"measurement": "AUC(0-t)", "setting": "human, plasma, po, 960 mg, 960 mg single oral dose of acoziborole, N = 6, mean ± SD, read-out: AUC0–t in plasma", "value": 5920, "unit": "µg·h/mL"}, {"measurement": "Tmax", "setting": "human, plasma, po, 960 mg, 960 mg single oral dose of acoziborole, N = 6, mean ± SD, read-out: tmax in plasma", "value": "52 ± 9.8", "unit": "h"}, {"measurement": "AUC(0-inf)", "setting": "human, plasma, 960 mg single oral dose of acoziborole, N = 6, mean ± SD, read-out: AUC0–∞ in plasma", "value": 6450, "unit": "µg·h/mL"}, {"measurement": "half-life", "setting": "male, human, plasma, po, 960 mg, 960 mg single oral dose of acoziborole, N = 6, mean ± SD, read-out: t1/2 in plasma (converted)", "value": 272, "unit": "h"}, {"measurement": "Tmax", "setting": "male, human, plasma, po, 960 mg, 960 mg single oral dose, N = 6, read-out: individual tmax values in plasma", "value": "48 to 72", "unit": "h"}, {"measurement": "Tmax", "setting": "male, human, plasma, po, 960 mg, 960 mg single oral dose, N = 6, read-out: median tmax in plasma", "value": 48, "unit": "h"}, {"measurement": "Cmax", "setting": "male, human, plasma, 960 mg single oral dose of acoziborole, healthy males, N = 6, mean ± SD", "value": "14200 ± 1980", "unit": "ng/mL"}, {"measurement": "Vd/F", "setting": "male, human, 960 mg single oral dose, plasma, N = 6, mean ± SD, read-out: Vz/F (apparent volume of distribution during the terminal phase)", "value": "59.1 ± 7.3", "unit": "L"}]}]}
